# Data reported in patent publication US10562935B2, “Stapled peptides and uses thereof” (London Health Sciences Centre Research Inc., priority 2015, dated 2020).
# Bridges are numbered along the chain shown (N, C = ends).
# Legend:
# [1] = Direct HA-binding ELISA of biotinylated peptides on HA coated plates (Example 4); parameters: key to HA binding: absorbance (color) read at 450 nm; settings: for HA binding: as repeated in tables 16, 18, 20; for HA direct binding (OD): optical density, summary tables 15, 17, 19
# Method: Each of these peptides was biotinylated at its amino-terminus, and an AEEA spacer was included to separate the peptide sequence from the biotin molecule.
# HA coated plates were purchased (ECHELON). Peptides were dissolved in 2 mM PBS to constant molarity, aliquoted and stored at −20° C. until used in assays. 7 kDa biotin-labeled RHAMM (SEQ ID NO: 1) was synthesized and used as a positive control in these assays. Biotin labeled peptides were added to the HA coated wells (n=3 replicates/peptide) at either 0.8 or 0.08 μM and then incubated with shaking overnight at 4° C. Wells were washed free of excess unbound peptides using 200 μl PBS (4 times). 100 μl of Streptavidin-HRP was then added to each well and the plate was incubated at room temperature for 1 hr. The plate was then washed with 200 μl PBS/well 4 times and TMB Liquid Substrate System for ELISA (Sigma) was added to each well, incubated for 5-10 min at room temperature and color read at 450 nm Plate Reader (BioTek, SYNERGY H4, Hybrid Reader).
# Direct HA-binding results for the biotinylated equivalents of compounds 132 and 150-161 are show in FIG. 39, and results for compounds 265-268 and 275-278 are shown in FIG. 40.
# [2] = tested on: IMR90 human fetal lung fibroblasts; experiment: Fibrosis assay: active TGF-β levels in TGF-β treated fibroblasts (ELISA); assay type: cell-based; settings: % inhibition relative to positive control
# Method: Compounds 132, 133, 135, 150, 152, 157-161, 265-269, 275, 277, and 278 were evaluated for their ability to inhibit fibrosis. IMR90 human fetal lung fibroblasts were obtained from ATCC and maintained in DMEM supplemented with 10% fetal bovine serum. In order to examine the effect of peptides on myofibroblast differentiation, 80% confluent cultures were serum starved overnight prior to addition of TGF-β (2 ng/mL, R&D Systems). Cells were treated with TGF-β for 24 hours prior to addition of peptides (10 ng/mL). 48 hours after addition of peptides, culture supernatants were collected and levels of active TGF-β measured using commercially available TGF-β ELISA (Quantikine, R&D Systems).
# Values are the Mean and SDM n=3 replicates. *p<0.05, **p<0.01, ***p<0.001 when compared to the +TGFβ1 control. In FIG. 47, where bars are labeled with two compound numbers (“133/150” and “135/152”) this means that the data were pooled for the indicated compounds, i.e., for the non-acetylated and acetylated versions of the indicated peptides.
# [3] = Function blocking score: total percent inhibition over migration, invasion, inflammation and fibrosis assays divided by number of assays; assay type: cell-based; settings: for Function blocking score (FBS): total percent inhibition for all assays tested divided by number of assays
# Method: As documented in the Examples hereinabove, a variety of cyclized peptides were produced that contained the HA-binding domain 1 (HABD1), HA-binding domain 2 (HABD2), or both HABD1 and HABD2. These peptides were evaluated for helicity, direct HA binding and in a number of cell-based bioassays (effects on migration, invasion, NFkB activation, and TGFβ1 production) that are relevant to inflammation and fibrosis. The relationships amongst helicity, HA-binding, and biofunction were evaluated. Peptides were divided into three groups for this analysis: (1) peptides containing HABD1 (“HABD1”); (2) peptides containing HABD2 (“HABD2”); and peptides containing most or all of HABD1 and all of HABD2 (“HABD1+HABD2”). R^2 values were calculated to quantify the relationships between helicity, HA-binding, and biofunction were evaluated.
# The results of this analysis for the HABD1 peptides are shown below in Tables 15 and 16. Table 16 provides a function blocking scores for each of the tested peptides and provides R^2 values showing the relationship between HA binding and helicity (“HA binding vs. CD”), HA binding and function-blocking score (“HA binding vs. FBS”) and helicity vs. function-blocking score (“CD vs. FBS”). The same type of summaries are provided for the HABD2 peptides in Tables 17 and 18 below, and for the HABD1+HABD2 peptides in Tables 19 and 20 below.
# Function blocking scores were calculated as the total percent inhibition achieved by the peptide for all assays the peptides were tested in, divided by the number of assays. Assays included migration, invasion, inflammation and fibrosis assays. Not all peptides were tested all of the assays. All peptides were included for deriving R^2 values (Pearson's formula).
# [4] = tested on: RHAMM-overexpressing (LR21) cells; experiment: Cell migration assay (Boyden chamber, Chemicon ECM510); assay type: cell-based; settings: for Migration (% inhib.): % inhibition relative to positive control; for inhibition of cell migration (in words): 10 ng/mL peptide, 20 hours, compared to 30% serum control
# Method: Compounds 132, 133, 150-152, 156-161, 265-269, 275, 277, and 278 were evaluated for their ability to inhibit cell migration. Cell migration assays were performed using Chemicon Assay Kits (ECM510 (Migration); Billerica, Mass., USA) according to the manufacturer's protocol. Briefly, sub-confluent cultures of RHAMM-overexpressing (LR21) cells were serum starved overnight. 7.5×10^4 cells were then plated in the upper chamber of a Boyden chamber. either in the presence or absence of 10 ng/mL of peptide. 30% fetal bovine serum in DMEM was used as the chemo-attractant in the lower chamber. The number of cells that had crossed the membrane after 20 hours was assessed using the CYQUANT GR Dye and lysis buffer solution provided in the kit. Fluorescence was measured with a fluorescent plate reader using a 480/520 nm filter set.
# Values are the mean and SDM of n=3 replicates. *p<0.05, **p<0.01. All statistics compare to 30% serum control. In FIGS. 41-43, where bars are labeled with two compound numbers (“133/150” and “135/152”) this means that the data were pooled for the indicated compounds, i.e., for the non-acetylated and acetylated versions of the indicated peptides.
# [5] = tested on: RHAMM-overexpressing (LR21) cells; experiment: Cell invasion assay (Boyden chamber with MATRIGEL, Chemicon ECM555); assay type: cell-based; settings: for inhibition of cellular invasion (in words): 10 ng/mL peptide, 20 hours, compared to 30% serum control; for Invasion (% inhib.): % inhibition relative to positive control, 10 ng/mL of peptide
# Method: Compounds 132, 133, 135, 150-153, 156, 265-269, and 275-278 were evaluated for their ability to inhibit cellular invasion. Invasion assays were performed using Chemicon Assay Kits ECM555 (Invasion); Billerica, Mass., USA) according to the manufacturer's protocol. Invasion assays are performed in an identical manner as the migration assays described above in Example 5, except that cells are required to invade through a layer of extracellular matrix (MATRIGEL) coating the filter that separates the upper and lower Boyden chambers. Briefly, sub-confluent cultures of RHAMM-overexpressing (LR21) cells were serum starved overnight before plating 7.5×10^4 cells in the upper chamber of a Boyden chamber either in the presence or absence of 10 ng/mL of peptide. 30% fetal bovine serum in DMEM was used as the chemo-attractant in the lower chamber. The number of cells that had crossed the membrane after 20 hours was assessed using the CYQUANT® GR Dye and lysis buffer solution provided in the kit. Fluorescence was measured with a fluorescent plate reader using 480/520 nm filter set.
# Values the mean and SDM of n=3 replicates. *p<0.05, **p<0.01, ***p<0.001 All statistics compared to 30% serum control. In FIG. 49, where bars are labeled with two compound numbers (“152/135”) this means that the data were pooled for the indicated compound, i.e., for the non-acetylated and acetylated versions of the indicated peptide.
HA binding [1],HA direct binding (OD) [1],"direct HA binding (in words) ([1]; biotinylated equivalents of the named compounds, 0.8 or 0.08 μM, vs PBS only control)",Substance,Fibrosis (% inhib.) [2],Function blocking score (FBS) [3],Migration (% inhib.) [4],inhibition of cell migration (in words) [4],inhibition of cellular invasion (in words) [5],Invasion (% inhib.) [5],function blocking (in words) [3]
0.009,0.009 OD,–,"Ac-(cyclo-6,10)-NLKQK[EKHVK]KLKDE-NH2 (Ac-NLKQKEKHVKKLKDE-NH2; lactam 6-10; SMILES CC(=O)N[C@@H](CC(N)=O)C(=O)N[C@@H](CC(C)C)C(=O)N[C@@H](CCCCN)C(=O)N[C@@H](CCC(N)=O)C(=O)N[C@@H](CCCCN)C(=O)N[C@H]1CCC(=O)NCCCC[C@@H](C(=O)N[C@@H](CCCCN)C(=O)N[C@@H](CC(C)C)C(=O)N[C@@H](CCCCN)C(=O)N[C@@H](CC(=O)O)C(=O)N[C@@H](CCC(=O)O)C(N)=O)NC(=O)[C@H](C(C)C)NC(=O)[C@H](Cc2c[nH]cn2)NC(=O)[C@H](CCCCN)NC1=O) [Compound 159]",50 % inhib.,17,0 % inhib.,–,–,–,–
0.08,0.08 OD,–,"Ac-(cyclo-7,11)-VSKLRS[ELVKK]KQN-NH2 (Ac-VSKLRSELVKKKQN-NH2; lactam 7-11; SMILES CC(=O)N[C@H](C(=O)N[C@@H](CO)C(=O)N[C@@H](CCCCN)C(=O)N[C@@H](CC(C)C)C(=O)N[C@@H](CCCNC(=N)N)C(=O)N[C@@H](CO)C(=O)N[C@H]1CCC(=O)NCCCC[C@@H](C(=O)N[C@@H](CCCCN)C(=O)N[C@@H](CCC(N)=O)C(=O)N[C@@H](CC(N)=O)C(N)=O)NC(=O)[C@H](CCCCN)NC(=O)[C@H](C(C)C)NC(=O)[C@H](CC(C)C)NC1=O)C(C)C) [Compound 153]",–,29,0 % inhib.,–,significantly inhibited cellular invasion,58 % inhib.,–
0.01,0.01 OD,–,"Ac-(cyclo-5,9)-VSKL[ESQLK]KRKQN-NH2 (Ac-VSKLESQLKKRKQN-NH2; lactam 5-9; SMILES CC(=O)N[C@H](C(=O)N[C@@H](CO)C(=O)N[C@@H](CCCCN)C(=O)N[C@@H](CC(C)C)C(=O)N[C@H]1CCC(=O)NCCCC[C@@H](C(=O)N[C@@H](CCCCN)C(=O)N[C@@H](CCCNC(=N)N)C(=O)N[C@@H](CCCCN)C(=O)N[C@@H](CCC(N)=O)C(=O)N[C@@H](CC(N)=O)C(N)=O)NC(=O)[C@H](CC(C)C)NC(=O)[C@H](CCC(N)=O)NC(=O)[C@H](CO)NC1=O)C(C)C) [Compound 151]",–,20,59 % inhib.,significantly inhibit cell migration,–,0 % inhib.,–

# Further lines, the substance ahead of its results:
Substance,HA binding [1],HA direct binding (OD) [1],"direct HA binding (in words) ([1]; biotinylated equivalents of the named compounds, 0.8 or 0.08 μM, vs PBS only control)",Fibrosis (% inhib.) [2],Function blocking score (FBS) [3],Migration (% inhib.) [4],inhibition of cell migration (in words) [4],inhibition of cellular invasion (in words) [5],Invasion (% inhib.) [5],function blocking (in words) [3]
"Ac-(cyclo-7,11)-NLKQKI[EHVVK]LKDE-NH2 (Ac-NLKQKIEHVVKLKDE-NH2; lactam 7-11; SMILES CC[C@H](C)[C@H](NC(=O)[C@H](CCCCN)NC(=O)[C@H](CCC(N)=O)NC(=O)[C@H](CCCCN)NC(=O)[C@H](CC(C)C)NC(=O)[C@H](CC(N)=O)NC(C)=O)C(=O)N[C@H]1CCC(=O)NCCCC[C@@H](C(=O)N[C@@H](CC(C)C)C(=O)N[C@@H](CCCCN)C(=O)N[C@@H](CC(=O)O)C(=O)N[C@@H](CCC(=O)O)C(N)=O)NC(=O)[C@H](C(C)C)NC(=O)[C@H](C(C)C)NC(=O)[C@H](Cc2c[nH]cn2)NC1=O) [Compound 160]",0.004,0.004 OD,–,0 % inhib.,0,0 % inhib.,–,–,–,–
"Ac-(cyclo-8,12)-NLKQKIK[EVVKK]KDE-NH2 (Ac-NLKQKIKEVVKKKDE-NH2; lactam 8-12; SMILES CC[C@H](C)[C@H](NC(=O)[C@H](CCCCN)NC(=O)[C@H](CCC(N)=O)NC(=O)[C@H](CCCCN)NC(=O)[C@H](CC(C)C)NC(=O)[C@H](CC(N)=O)NC(C)=O)C(=O)N[C@@H](CCCCN)C(=O)N[C@H]1CCC(=O)NCCCC[C@@H](C(=O)N[C@@H](CCCCN)C(=O)N[C@@H](CC(=O)O)C(=O)N[C@@H](CCC(=O)O)C(N)=O)NC(=O)[C@H](CCCCN)NC(=O)[C@H](C(C)C)NC(=O)[C@H](C(C)C)NC1=O) [Compound 161]",0.009,0.009 OD,–,38 % inhib.,22,36 % inhib.,significantly inhibit cell migration,–,–,–
"Ac-(cyclo-6,10)-VSKLR[EQLVK]RKQN-NH2 (Ac-VSKLREQLVKRKQN-NH2; lactam 6-10; SMILES CC(=O)N[C@H](C(=O)N[C@@H](CO)C(=O)N[C@@H](CCCCN)C(=O)N[C@@H](CC(C)C)C(=O)N[C@@H](CCCNC(=N)N)C(=O)N[C@H]1CCC(=O)NCCCC[C@@H](C(=O)N[C@@H](CCCNC(=N)N)C(=O)N[C@@H](CCCCN)C(=O)N[C@@H](CCC(N)=O)C(=O)N[C@@H](CC(N)=O)C(N)=O)NC(=O)[C@H](C(C)C)NC(=O)[C@H](CC(C)C)NC(=O)[C@H](CCC(N)=O)NC1=O)C(C)C) [Compound 152]",0.005,–,bound poorly to HA,–,47,–,significantly inhibit cell migration,significantly inhibited cellular invasion,–,strong function blocker
